Data published in US7414072B2, “Aryl 5-thio-β-d-glucopyranoside derivatives and therapeutic agents for diabetes containing the same” (Taisho Pharmaceutical Co., Ltd., priority 2002, dated 2008).

SMILES	melting point
OC[C@H]1S[C@@H](Oc2ccc(Cl)cc2Cc2ccc(F)cc2F)[C@H](O)[C@@H](O)[C@@H]1O [Compound 60, 4′-chloro-2′-(2′,4′-difluorobenzyl)phenyl 5-thio-β-D-glucopyranoside]	175.5 to 177 °C
OC[C@H]1S[C@@H](Oc2ccc(Cl)cc2Cc2cccc(F)c2)[C@H](O)[C@@H](O)[C@@H]1O [Compound 61, 4′-chloro-2′-(3′-fluorobenzyl)phenyl 5-thio-β-D-glucopyranoside]	182 to 183 °C
OC[C@H]1S[C@@H](Oc2ccc(Cl)cc2Cc2cccc(Oc3ccccc3)c2)[C@H](O)[C@@H](O)[C@@H]1O [Compound 62]	124.5 to 127 °C
CC(C)c1ccc(Cc2cc(Cl)ccc2O[C@@H]2S[C@H](CO)[C@@H](O)[C@H](O)[C@H]2O)cc1 [Compound 63, 4′-chloro-2′-(4′-isopropylbenzyl)phenyl 5-thio-β-D-glucopyranoside]	146 to 148.5 °C
CCc1ccc(Cc2ccc(F)cc2O[C@@H]2S[C@H](CO)[C@@H](O)[C@H](O)[C@H]2O)cc1 [Compound 64, 2′-(4′-ethylbenzyl)-5′-fluorophenyl 5-thio-β-D-glucopyranoside]	156 to 157 °C
OC[C@H]1S[C@@H](Oc2ccc(Cl)cc2Cc2c(F)c(F)cc(F)c2F)[C@H](O)[C@@H](O)[C@@H]1O [Compound 66, 4′-chloro-2′-(2′,3′,5′,6′-tetrafluorobenzyl)phenyl 5-thio-β-D-glucopyranoside]	204 to 211 °C
OC[C@H]1S[C@@H](Oc2ccc(Cl)cc2Cc2ccc(-c3ccccc3)cc2)[C@H](O)[C@@H](O)[C@@H]1O [Compound 67, 4′-chloro-2′-(4′-phenylbenzyl)phenyl 5-thio-β-D-glucopyranoside]	187 to 195 °C
OC[C@H]1S[C@@H](Oc2ccc(Cl)cc2Cc2cccc(OC(F)(F)F)c2)[C@H](O)[C@@H](O)[C@@H]1O [Compound 69, 4′-chloro-2′-(3′-trifluoromethoxybenzyl)phenyl 5-thio-β-D-glucopyranoside]	146 to 148 °C
OC[C@H]1S[C@@H](Oc2ccc(Cl)cc2Cc2ccc(Cl)cc2Cl)[C@H](O)[C@@H](O)[C@@H]1O [Compound 70, 4′-chloro-2′-(2′,4′-dichlorobenzyl)phenyl 5-thio-β-D-glucopyranoside]	172 to 174 °C
CCCCCOc1ccc(Cc2cc(Cl)ccc2O[C@@H]2S[C@H](CO)[C@@H](O)[C@H](O)[C@H]2O)cc1 [Compound 72, 4′-chloro-2′-(4′-pentyloxybenzyl)phenyl 5-thio-β-D-glucopyranoside]	143 to 144.5 °C
OC[C@H]1S[C@@H](Oc2ccccc2Cc2ccc(N3CCOCC3)cc2)[C@H](O)[C@@H](O)[C@@H]1O [Compound 73, 2′-(4′-morpholinobenzyl)phenyl 5-thio-β-D-glucopyranoside]	174 to 176.5 °C

The remaining lines, values ahead:

melting point	SMILES
96 to 101 °C	CCc1ccccc1Cc1ccccc1O[C@@H]1S[C@H](CO)[C@@H](O)[C@H](O)[C@H]1O [Compound 58]
183.5 to 185 °C	OC[C@H]1S[C@@H](Oc2ccc(Cl)cc2Cc2c(F)cccc2Cl)[C@H](O)[C@@H](O)[C@@H]1O [Compound 59, 2′-(2′-chloro-6′-fluorobenzyl)-4′-chlorophenyl 5-thio-β-D-glucopyranoside]
100 to 105 °C	COc1cc(OC)c(Cc2ccccc2O[C@@H]2S[C@H](CO)[C@@H](O)[C@H](O)[C@H]2O)c(OC)c1 [Compound 65, 2′-(2′,4′,6′-trimethoxybenzyl)phenyl 5-thio-β-D-glucopyranoside]
170 to 175 °C	OC[C@H]1S[C@@H](Oc2ccc(Cl)cc2Cc2cccc3ccccc23)[C@H](O)[C@@H](O)[C@@H]1O [Compound 68]
192 to 194 °C	OC[C@H]1S[C@@H](Oc2ccc(Cl)cc2Cc2ccc3ccccc3c2)[C@H](O)[C@@H](O)[C@@H]1O [Compound 71]
